The source of these data is ChEMBL document CHEMBL4321785, “Challenges and Opportunities for Therapeutics Targeting the Voltage-Gated Sodium Channel Isoform NaV1.7” (J Med Chem, 2019).

Several values for one entry are separate records, joined by “and”; a condition that tells them apart may be missing. Equal values may be shown once.

Series [1] in a line: Unbound fraction in mouse plasma. Type of series: ADME, cell-free.
Series [2] is described as follows: Ratio of unbound plasma concentration in mouse model of histamine-induced pain to IC50 for inhibition of mouse Nav1.7 expressed in HEK293 cells by electrophysiology assay. The format is cell-based.
In series [3] the target is Sodium channel protein type 1 subunit alpha (Homo sapiens, UniProt P35498). Kind of series: Inhibition of human Nav1.1 expressed in HEK293 cells by electrophysiology assay. The format is cell-based.
Series [4] concerns the target Sodium channel protein type 9 subunit alpha (Rattus norvegicus, UniProt O08562). Nature of the series: Inhibition of rat Nav1.7 expressed in HEK293 cells by electrophysiology assay. The format is cell-based.
For series [5], the species on record is Homo sapiens. Nature of the series: Selectivity index, ratio of IC50 for inhibition of human Nav1.4 expressed in HEK293 cells by electrophysiology assay to IC50 for inhibition of human Nav1.7 expressed in HEK293 cells by electrophysiology assay. The format is cell-based.
For series [6], the target named is Sodium channel protein type 8 subunit alpha (Homo sapiens, UniProt Q9UQD0). Kind of series: Inhibition of human Nav1.6 expressed in HEK293 cells by electrophysiology assay. Type of series: cell-based.
The species named for series [7] is Homo sapiens. Kind of series: Selectivity index, ratio of IC50 for inhibition of human Nav1.1 expressed in HEK293 cells by electrophysiology assay to IC50 for inhibition of human Nav1.7 expressed in HEK293 cells by electrophysiology assay. The format is cell-based.
Series [8] deals with Sodium channel protein type 3 subunit alpha (Homo sapiens, UniProt Q9NY46). Nature of the series: Inhibition of human Nav1.3 expressed in HEK293 cells by electrophysiology assay. Type of series: cell-based.
Series [9] deals with Sodium channel protein type 5 subunit alpha (Homo sapiens, UniProt Q14524). Nature of the series: Inhibition of human Nav1.5 expressed in HEK293 cells by electrophysiology assay. The format is cell-based.
The species named for series [10] is Homo sapiens. Kind of series: Selectivity index, ratio of IC50 for inhibition of human Nav1.5 expressed in HEK293 cells by electrophysiology assay to IC50 for inhibition of human Nav1.7 expressed in HEK293 cells by electrophysiology assay. The format is cell-based.
Series [11] is described as follows: Ratio of unbound plasma concentration in mouse model of capsaicin-induced pain to IC50 for inhibition of mouse Nav1.7 expressed in HEK293 cells by electrophysiology assay. Type of series: cell-based.
Series [12] addresses Sodium channel protein type 4 subunit alpha (Homo sapiens, UniProt P35499). Kind of series: Inhibition of human Nav1.4 expressed in HEK293 cells by electrophysiology assay. The format is cell-based.
Series [13] is filed under the species Homo sapiens. Kind of series: Selectivity index, ratio of IC50 for inhibition of human Nav1.3 expressed in HEK293 cells by electrophysiology assay to IC50 for inhibition of human Nav1.7 expressed in HEK293 cells by electrophysiology assay. Type of series: cell-based.
The target of series [14] is Sodium channel protein type 2 subunit alpha (Homo sapiens, UniProt Q99250). Kind of series: Inhibition of human Nav1.2 expressed in HEK293 cells by electrophysiology assay. The format is cell-based.
Series [15] is filed under the species Rattus norvegicus.
The species entered for series [16] is Rattus norvegicus. This is another data set of the same source.
Series [17] is filed under the species Rattus norvegicus. The source holds these as a separate data set.
Series [18] deals with Sodium channel protein type 10 subunit alpha (Homo sapiens, UniProt Q9Y5Y9). Nature of the series: Inhibition of human Nav1.8 expressed in HEK293 cells by electrophysiology assay. Type of series: cell-based.
A short description of series [19]: Cmax in healthy human. The format is ADME. The settings on record: in vivo.

Chain of Sodium channel protein type 5 subunit alpha (Q14524 whole entry): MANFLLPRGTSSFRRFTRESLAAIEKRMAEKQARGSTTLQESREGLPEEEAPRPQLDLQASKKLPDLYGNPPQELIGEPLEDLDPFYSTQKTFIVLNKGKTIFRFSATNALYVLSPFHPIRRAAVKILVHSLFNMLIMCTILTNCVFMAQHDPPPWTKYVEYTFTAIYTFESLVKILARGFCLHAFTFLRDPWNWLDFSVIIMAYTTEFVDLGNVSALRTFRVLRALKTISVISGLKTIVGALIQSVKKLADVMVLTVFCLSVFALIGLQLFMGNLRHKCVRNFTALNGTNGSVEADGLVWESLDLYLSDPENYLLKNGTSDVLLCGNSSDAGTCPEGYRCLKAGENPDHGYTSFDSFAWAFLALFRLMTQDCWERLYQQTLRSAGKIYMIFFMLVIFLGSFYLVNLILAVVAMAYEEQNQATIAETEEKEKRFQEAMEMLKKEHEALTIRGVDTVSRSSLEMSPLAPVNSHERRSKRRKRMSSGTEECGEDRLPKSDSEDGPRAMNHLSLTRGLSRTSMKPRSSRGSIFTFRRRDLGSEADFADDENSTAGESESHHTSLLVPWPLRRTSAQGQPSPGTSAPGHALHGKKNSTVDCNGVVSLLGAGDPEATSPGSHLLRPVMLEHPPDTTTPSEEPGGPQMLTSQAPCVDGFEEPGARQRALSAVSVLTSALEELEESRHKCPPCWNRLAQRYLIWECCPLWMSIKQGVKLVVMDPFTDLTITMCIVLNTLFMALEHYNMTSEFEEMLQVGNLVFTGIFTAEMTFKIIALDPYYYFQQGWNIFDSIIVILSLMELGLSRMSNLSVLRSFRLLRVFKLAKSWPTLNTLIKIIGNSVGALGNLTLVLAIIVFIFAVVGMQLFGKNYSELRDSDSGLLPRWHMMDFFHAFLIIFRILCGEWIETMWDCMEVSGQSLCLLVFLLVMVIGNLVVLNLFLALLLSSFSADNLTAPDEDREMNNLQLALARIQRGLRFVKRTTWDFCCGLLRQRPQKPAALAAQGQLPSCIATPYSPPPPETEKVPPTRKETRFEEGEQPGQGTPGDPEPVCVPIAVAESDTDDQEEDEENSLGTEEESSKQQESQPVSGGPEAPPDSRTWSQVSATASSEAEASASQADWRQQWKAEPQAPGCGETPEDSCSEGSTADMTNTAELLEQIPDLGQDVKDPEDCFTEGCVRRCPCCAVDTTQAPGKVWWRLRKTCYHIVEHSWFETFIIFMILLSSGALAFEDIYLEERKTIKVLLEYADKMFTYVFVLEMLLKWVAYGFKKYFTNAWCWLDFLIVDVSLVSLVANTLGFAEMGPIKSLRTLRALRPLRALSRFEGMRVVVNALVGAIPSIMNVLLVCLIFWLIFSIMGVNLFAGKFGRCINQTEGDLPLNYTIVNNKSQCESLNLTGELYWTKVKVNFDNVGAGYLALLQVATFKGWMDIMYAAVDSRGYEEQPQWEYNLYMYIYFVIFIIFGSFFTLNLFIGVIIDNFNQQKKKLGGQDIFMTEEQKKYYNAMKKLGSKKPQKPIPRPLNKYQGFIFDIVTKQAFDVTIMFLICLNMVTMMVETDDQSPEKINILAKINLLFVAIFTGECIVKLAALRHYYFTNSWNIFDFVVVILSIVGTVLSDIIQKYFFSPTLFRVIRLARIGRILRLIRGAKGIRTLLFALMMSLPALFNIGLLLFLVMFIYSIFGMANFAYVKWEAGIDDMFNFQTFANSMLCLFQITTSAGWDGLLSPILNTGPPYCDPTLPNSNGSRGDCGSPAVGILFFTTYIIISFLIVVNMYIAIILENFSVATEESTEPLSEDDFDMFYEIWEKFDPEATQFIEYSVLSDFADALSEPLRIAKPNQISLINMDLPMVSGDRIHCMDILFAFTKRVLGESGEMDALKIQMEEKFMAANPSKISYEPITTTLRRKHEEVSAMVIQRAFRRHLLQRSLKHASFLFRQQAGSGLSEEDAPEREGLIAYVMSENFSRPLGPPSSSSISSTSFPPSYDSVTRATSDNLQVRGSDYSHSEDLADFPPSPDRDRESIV
Chain of Sodium channel protein type 8 subunit alpha (Q9UQD0 whole entry): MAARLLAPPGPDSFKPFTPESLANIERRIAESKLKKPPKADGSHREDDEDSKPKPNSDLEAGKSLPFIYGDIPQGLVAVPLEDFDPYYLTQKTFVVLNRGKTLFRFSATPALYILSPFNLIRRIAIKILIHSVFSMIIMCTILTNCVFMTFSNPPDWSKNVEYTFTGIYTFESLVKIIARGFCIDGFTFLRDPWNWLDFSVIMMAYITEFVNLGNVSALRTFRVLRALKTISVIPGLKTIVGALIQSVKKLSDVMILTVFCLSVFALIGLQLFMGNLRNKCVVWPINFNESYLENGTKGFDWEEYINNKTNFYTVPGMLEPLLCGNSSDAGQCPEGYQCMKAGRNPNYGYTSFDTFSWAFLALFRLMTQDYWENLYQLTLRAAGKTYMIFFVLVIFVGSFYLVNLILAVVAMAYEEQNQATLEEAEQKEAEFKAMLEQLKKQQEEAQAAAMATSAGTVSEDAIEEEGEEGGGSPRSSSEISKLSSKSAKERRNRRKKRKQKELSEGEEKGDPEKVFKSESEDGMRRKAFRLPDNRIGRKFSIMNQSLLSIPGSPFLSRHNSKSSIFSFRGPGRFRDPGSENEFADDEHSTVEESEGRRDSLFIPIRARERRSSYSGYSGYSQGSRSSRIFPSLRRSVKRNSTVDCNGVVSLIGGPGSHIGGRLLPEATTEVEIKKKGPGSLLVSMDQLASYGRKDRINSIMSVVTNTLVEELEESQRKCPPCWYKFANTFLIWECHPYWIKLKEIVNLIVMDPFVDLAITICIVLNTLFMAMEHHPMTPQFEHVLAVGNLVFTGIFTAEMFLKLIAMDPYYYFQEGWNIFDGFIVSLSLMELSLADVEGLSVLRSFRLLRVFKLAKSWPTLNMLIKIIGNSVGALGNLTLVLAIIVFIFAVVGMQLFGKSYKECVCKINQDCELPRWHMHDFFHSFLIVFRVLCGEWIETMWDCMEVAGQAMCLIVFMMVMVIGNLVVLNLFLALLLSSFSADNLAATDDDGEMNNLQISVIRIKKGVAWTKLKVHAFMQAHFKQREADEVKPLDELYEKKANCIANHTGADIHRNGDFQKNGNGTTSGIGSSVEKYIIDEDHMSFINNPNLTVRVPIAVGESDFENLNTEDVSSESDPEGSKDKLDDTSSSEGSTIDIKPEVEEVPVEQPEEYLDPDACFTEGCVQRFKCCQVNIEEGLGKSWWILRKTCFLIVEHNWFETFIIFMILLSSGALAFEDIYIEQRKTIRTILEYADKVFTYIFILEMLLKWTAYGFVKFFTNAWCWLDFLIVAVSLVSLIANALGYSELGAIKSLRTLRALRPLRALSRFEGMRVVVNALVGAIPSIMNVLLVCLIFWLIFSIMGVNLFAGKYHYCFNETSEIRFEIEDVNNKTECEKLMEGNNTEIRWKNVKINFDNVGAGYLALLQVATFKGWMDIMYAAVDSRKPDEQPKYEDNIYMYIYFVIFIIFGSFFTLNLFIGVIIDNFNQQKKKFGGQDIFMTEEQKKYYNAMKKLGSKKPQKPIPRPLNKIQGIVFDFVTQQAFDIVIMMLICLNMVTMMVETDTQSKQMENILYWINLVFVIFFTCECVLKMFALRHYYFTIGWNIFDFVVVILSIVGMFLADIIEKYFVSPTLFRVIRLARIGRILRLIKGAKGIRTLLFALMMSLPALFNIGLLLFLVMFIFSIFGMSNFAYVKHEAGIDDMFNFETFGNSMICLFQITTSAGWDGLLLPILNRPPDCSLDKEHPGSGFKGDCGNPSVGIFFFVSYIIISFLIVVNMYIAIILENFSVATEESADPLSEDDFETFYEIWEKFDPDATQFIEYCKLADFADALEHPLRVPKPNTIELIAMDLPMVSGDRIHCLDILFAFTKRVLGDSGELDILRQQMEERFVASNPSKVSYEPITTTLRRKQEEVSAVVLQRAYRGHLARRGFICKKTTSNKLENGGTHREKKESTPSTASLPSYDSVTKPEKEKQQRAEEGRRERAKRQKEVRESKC

In series [1], `COc1cc(-c2cc(F)cc(Cl)c2)c(F)cc1-n1c(=O)ccc2cc(S(=O)(=O)Nc3ccon3)ccc21` yielded a Fu of 0.014. For the same molecule, the fraction unbound – broadly, free concentration divided by total concentration – in [1] was 0.0017. In addition, the Ratio in series [2] was 5.3 and 4; in series [11], 21. For the same molecule, the IC50 – broadly, the midpoint of a concentration-inhibition curve – in series [3] was above 14000 nM; in series [3] (hek293), above 14000 nM; in [4], 8600 nM and > 42000 nM; in series [6] it was 1300 nM and > 10000 nM; in series [8], above 14000 nM; in [8] (hek293), above 14000 nM. Further, the IC50 in series [9], in series [9] (hek293), in series [12] and in [12] (hek293) was above 14000 nM in each case. The Ratio IC50 in the series listed under Homo sapiens [5], in the series listed under Homo sapiens [7], in the series filed under Homo sapiens [10] and in the series listed under Homo sapiens [13] was above 4300 in each case.

As to `O=C(NS(=O)(=O)N1CCC1)c1cc(C2CC2)c(OCC23CC4CC(CC(C4)C2)C3)cc1F`, the IC50 in [14] came to 20 nM; in [6], 480 nM; in series [9], 49 nM.

Regarding `NC1=N[C@H](O)[C@H]2[C@H]3O[C@]4(O)O[C@@H]([C@@H](O)[C@@]2(N1)[C@@H]4O)[C@]3(O)CO`, the ED in the series filed under Rattus norvegicus [15] was 6 µg/kg; in the series listed under Rattus norvegicus [16], 1 to 3 µg/kg; in the series listed under Rattus norvegicus [17], 1 µg/kg.

On to `N#Cc1cc(S(=O)(=O)Nc2ncns2)ccc1Oc1ccc(-c2cccc(C(F)(F)F)c2)cc1-c1ccnc(CNCCC2CCNCC2)c1`, for which the IC50 in series [18] turned out to be 26000 nM; in [14], 3 nM; in series [6], 5.8 nM; in [9], 2600 nM; in series [12], 1500 nM.

Turning to `Nc1[nH]ncc1-c1cc(Cl)ccc1Oc1cc(F)c(S(=O)(=O)Nc2cscn2)cc1Cl` [PF-05089771], the maximum concentration (Cmax) (in general, the highest concentration seen after dosing) in series [19] was above 10000 ng/mL.
